#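 Compound exposure: 48 hours, 5 concentrations, 96-well plates. TGI denotes the concentration required for complete inhibition of growth.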
# Key:
# Assay in all cases: NCI anticancer screen, dose series, 48 h
# [1] = system: HS 578T breast
# [2] = system: HCT-15 colon
# [3] = system: NCI-H460 lung
# [4] = system: SF-539 CNS
# [5] = system: HT29 colon
# [6] = system: A498 renal
# [7] = system: MOLT-4 leukemia
# [8] = system: HCC-2998 colon
# [9] = system: UACC-257 melanoma
# [10] = system: T-47D breast
# [11] = system: UACC-62 melanoma
# [12] = system: CAKI-1 renal
# [13] = system: MDA-MB-435
# [14] = system: OVCAR-8 ovarian
# [15] = system: NCI/ADR-RES ovarian
# [16] = system: NCI-H226 lung
# [17] = system: RXF 393 renal
# [18] = system: U251 CNS
# [19] = system: HOP-62 NSCLC
# [20] = system: COLO 205 colon
# [21] = system: DU-145 prostate
# [22] = system: MALME-3M melanoma
# [23] = system: SNB-75 CNS
# [24] = system: KM12 colon
# [25] = system: NCI-H23 lung
# [26] = system: IGROV1 ovarian
# [27] = system: HOP-92 NSCLC
# [28] = system: M14 melanoma
# [29] = system: CCRF-CEM leukemia
# [30] = system: MDA-N
# [31] = system: MCF7 breast
# [32] = system: SK-MEL-5 melanoma
# [33] = system: A549 NSCLC
# [34] = system: SK-OV-3 ovarian
# [35] = system: BT-549 breast
# [36] = system: HCT-116 colon
# [37] = system: SF-295 CNS
# [38] = system: HL-60(TB) leukemia
# [39] = system: OVCAR-5 ovarian
# [40] = system: TK-10 renal
# [41] = system: OVCAR-4 ovarian
# [42] = system: LOX IMVI melanoma
# [43] = system: RPMI-8226 leukemia
# [44] = system: SK-MEL-28 melanoma
# [45] = system: UO-31 renal
# [46] = system: ACHN renal
# [47] = system: EKVX NSCLC
# [48] = system: K-562 leukemia
# [49] = system: SW-620 colon
# [50] = system: PC-3 prostate
# [51] = system: SF-268 CNS
# [52] = system: MDA-MB-231 breast
# [53] = system: 786-0 renal
# [54] = system: NCI-H522 lung
# [55] = system: SNB-19 CNS
# [56] = system: SN12C renal
# [57] = system: SK-MEL-2 melanoma
smiles,measurement,setting,value
COc1cc(/C=C2\CC3C4CC[C@H]5C[C@@H](O)CC[C@]5(C)C4CC[C@]3(C)C2=O)cc(OC)c1OC (some centres not stated),TGI,[1],> 100 µM
same,TGI,[2],> 100 µM
same,TGI,[3],38.9 µM
same,TGI,[4],98.2 µM
same,TGI,[5],> 100 µM
same,TGI,[6],75.5 µM
same,TGI,[7],69.5 µM
same,TGI,[8],34.9 µM
same,TGI,[9],> 100 µM
same,TGI,[10],34.8 µM
same,TGI,[11],44.9 µM
same,TGI,[12],44.9 µM
same,TGI,[13],85.8 µM
same,TGI,[14],> 100 µM
same,TGI,[15],> 100 µM
same,TGI,[16],86.1 µM
same,TGI,[17],> 100 µM
same,TGI,[18],41.5 µM
same,TGI,[19],49.2 µM
same,TGI,[20],26.1 µM
same,TGI,[21],> 100 µM
same,TGI,[22],49.1 µM
same,TGI,[23],79.7 µM
same,TGI,[24],73.7 µM
same,TGI,[25],> 100 µM
same,TGI,[26],> 100 µM
same,TGI,[27],> 100 µM
same,TGI,[28],61 µM
same,TGI,[29],> 100 µM
same,TGI,[30],> 100 µM
same,TGI,[31],28.6 µM
same,TGI,[32],22 µM
same,TGI,[33],> 100 µM
same,TGI,[34],52.9 µM
same,TGI,[35],> 100 µM
same,TGI,[36],43.6 µM
same,TGI,[37],21.5 µM
same,TGI,[38],43.2 µM
same,TGI,[39],> 100 µM
same,TGI,[40],> 100 µM
same,TGI,[41],57.2 µM
same,TGI,[42],32.6 µM
same,TGI,[43],27.8 µM
same,TGI,[44],> 100 µM
same,TGI,[45],31.7 µM
same,TGI,[46],45.8 µM
same,TGI,[47],> 100 µM
same,TGI,[48],> 100 µM
same,TGI,[49],> 100 µM
same,TGI,[50],> 100 µM
same,TGI,[51],> 100 µM
same,TGI,[52],> 100 µM
same,TGI,[53],> 100 µM
same,TGI,[54],43.3 µM
same,TGI,[55],> 100 µM
same,TGI,[56],95.3 µM
same,TGI,[57],33.7 µM
